IC50 data for 26 molecules are collected here from patent publication US10660877B2 (BRISTOL-MYERS SQUIBB COMPANY, priority 2016, dated 2020).

One experiment has as its target human TLR9 (Homo sapiens (Human), UniProt Q9NR96). The experiment in a line: TLR9 inhibition reporter assay (HEK-Blue cells, SEAP reporter, ODN2006 stimulation).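 Note: compounds tested over 0.05 nM to 50 µM, 22 h incubation, inhibition taken as SEAP signal drop from agonist plus DMSO wells toward a known inhibitor control.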
Another experiment addresses human TLR8 (Homo sapiens (Human), UniProt Q9NR97). The experiment in a line: TLR8 inhibition reporter assay (HEK-Blue cells, SEAP reporter, R848 stimulation).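 Note: compounds tested from 0.05 nM to 50 µM, 22 h at 37 °C, SEAP measured with HEK-Blue Detection, inhibition relative to agonist plus DMSO versus a known inhibitor.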
The next experiment concerns the target human TLR7 (Homo sapiens (Human), UniProt Q9NYK1). Nature of the experiment: TLR7 inhibition reporter assay (HEK-Blue cells, SEAP reporter, gardiquimod stimulation). It is filed as cell-based. In general terms: Reporter assays use an easily measured gene product as a stand-in for the process of interest.
Where [1] appears, read: HEK-Blue cells overexpressing human TLR7, gardiquimod 7.5 μM.
Setting [2] is: read-out: TLR9 IC50, HEK-Blue cells overexpressing human TLR9, ODN2006 5 nM.
Where [3] appears, read: read-out: TLR8 IC50, HEK-Blue cells overexpressing human TLR8, R848 15.9 μM.
Setting [4] is: read-out: TLR9 IC50, HEK-Blue cells, ODN2006 5 nM.
Setting [5] is: read-out: TLR8 IC50, HEK-Blue cells, R848 15.9 μM.
The mark [6] stands for this setting: HEK-Blue cells, gardiquimod 7.5 μM.

SMILES strings stand for the structures. Where two headings read alike, the source gives them in different places.

Sequence of human TLR9 (Q9NR96 26-1032): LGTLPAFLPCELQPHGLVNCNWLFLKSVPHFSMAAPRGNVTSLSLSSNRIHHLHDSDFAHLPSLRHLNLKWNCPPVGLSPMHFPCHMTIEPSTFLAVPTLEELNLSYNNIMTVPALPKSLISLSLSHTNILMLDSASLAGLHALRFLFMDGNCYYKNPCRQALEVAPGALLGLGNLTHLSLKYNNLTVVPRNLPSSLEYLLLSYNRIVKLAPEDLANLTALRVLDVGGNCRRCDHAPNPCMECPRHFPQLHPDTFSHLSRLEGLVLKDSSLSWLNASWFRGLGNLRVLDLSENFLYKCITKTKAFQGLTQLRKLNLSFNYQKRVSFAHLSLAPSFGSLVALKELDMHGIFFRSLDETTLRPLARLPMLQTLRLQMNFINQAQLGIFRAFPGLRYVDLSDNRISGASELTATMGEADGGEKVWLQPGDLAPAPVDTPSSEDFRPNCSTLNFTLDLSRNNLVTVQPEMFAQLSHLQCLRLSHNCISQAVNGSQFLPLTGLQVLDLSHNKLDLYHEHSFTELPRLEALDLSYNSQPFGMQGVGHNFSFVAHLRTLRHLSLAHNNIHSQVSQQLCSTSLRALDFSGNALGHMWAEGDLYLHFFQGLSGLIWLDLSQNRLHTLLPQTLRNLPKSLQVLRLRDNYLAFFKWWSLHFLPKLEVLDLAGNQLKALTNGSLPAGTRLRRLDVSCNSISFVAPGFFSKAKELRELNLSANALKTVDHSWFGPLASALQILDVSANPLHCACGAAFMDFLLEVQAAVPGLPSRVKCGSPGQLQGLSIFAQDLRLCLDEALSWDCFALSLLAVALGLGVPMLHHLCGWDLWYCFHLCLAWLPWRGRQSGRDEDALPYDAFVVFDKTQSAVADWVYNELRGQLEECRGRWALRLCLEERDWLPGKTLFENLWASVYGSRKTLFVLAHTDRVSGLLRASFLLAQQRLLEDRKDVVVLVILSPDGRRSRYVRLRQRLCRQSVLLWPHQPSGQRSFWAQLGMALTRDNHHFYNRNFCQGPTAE
Sequence of human TLR7 (Q9NYK1 27-1049): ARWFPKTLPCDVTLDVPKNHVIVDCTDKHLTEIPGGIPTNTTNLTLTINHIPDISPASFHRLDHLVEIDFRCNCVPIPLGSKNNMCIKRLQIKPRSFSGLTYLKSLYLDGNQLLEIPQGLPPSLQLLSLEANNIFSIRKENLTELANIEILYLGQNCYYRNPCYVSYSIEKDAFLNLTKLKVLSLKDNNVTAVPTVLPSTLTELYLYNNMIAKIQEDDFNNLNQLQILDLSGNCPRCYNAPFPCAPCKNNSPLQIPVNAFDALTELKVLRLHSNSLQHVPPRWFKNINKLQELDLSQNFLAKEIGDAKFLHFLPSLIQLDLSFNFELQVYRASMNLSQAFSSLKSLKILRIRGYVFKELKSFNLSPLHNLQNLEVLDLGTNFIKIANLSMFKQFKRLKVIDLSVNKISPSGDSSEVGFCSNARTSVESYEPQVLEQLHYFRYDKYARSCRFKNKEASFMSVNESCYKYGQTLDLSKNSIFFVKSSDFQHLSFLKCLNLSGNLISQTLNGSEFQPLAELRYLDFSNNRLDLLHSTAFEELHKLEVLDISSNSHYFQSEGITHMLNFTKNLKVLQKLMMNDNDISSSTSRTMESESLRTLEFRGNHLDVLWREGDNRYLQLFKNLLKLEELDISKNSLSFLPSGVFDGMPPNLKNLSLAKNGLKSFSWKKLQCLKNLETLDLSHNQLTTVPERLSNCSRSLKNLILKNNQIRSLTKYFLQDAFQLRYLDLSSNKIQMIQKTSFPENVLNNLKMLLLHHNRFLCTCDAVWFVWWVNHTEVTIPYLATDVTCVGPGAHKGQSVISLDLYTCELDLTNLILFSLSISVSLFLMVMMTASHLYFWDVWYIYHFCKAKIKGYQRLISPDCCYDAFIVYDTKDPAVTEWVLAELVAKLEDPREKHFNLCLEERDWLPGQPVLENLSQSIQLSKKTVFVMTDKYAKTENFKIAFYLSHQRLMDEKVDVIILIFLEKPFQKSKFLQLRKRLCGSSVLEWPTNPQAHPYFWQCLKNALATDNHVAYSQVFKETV
Sequence of human TLR8 (Q9NR97 27-1041): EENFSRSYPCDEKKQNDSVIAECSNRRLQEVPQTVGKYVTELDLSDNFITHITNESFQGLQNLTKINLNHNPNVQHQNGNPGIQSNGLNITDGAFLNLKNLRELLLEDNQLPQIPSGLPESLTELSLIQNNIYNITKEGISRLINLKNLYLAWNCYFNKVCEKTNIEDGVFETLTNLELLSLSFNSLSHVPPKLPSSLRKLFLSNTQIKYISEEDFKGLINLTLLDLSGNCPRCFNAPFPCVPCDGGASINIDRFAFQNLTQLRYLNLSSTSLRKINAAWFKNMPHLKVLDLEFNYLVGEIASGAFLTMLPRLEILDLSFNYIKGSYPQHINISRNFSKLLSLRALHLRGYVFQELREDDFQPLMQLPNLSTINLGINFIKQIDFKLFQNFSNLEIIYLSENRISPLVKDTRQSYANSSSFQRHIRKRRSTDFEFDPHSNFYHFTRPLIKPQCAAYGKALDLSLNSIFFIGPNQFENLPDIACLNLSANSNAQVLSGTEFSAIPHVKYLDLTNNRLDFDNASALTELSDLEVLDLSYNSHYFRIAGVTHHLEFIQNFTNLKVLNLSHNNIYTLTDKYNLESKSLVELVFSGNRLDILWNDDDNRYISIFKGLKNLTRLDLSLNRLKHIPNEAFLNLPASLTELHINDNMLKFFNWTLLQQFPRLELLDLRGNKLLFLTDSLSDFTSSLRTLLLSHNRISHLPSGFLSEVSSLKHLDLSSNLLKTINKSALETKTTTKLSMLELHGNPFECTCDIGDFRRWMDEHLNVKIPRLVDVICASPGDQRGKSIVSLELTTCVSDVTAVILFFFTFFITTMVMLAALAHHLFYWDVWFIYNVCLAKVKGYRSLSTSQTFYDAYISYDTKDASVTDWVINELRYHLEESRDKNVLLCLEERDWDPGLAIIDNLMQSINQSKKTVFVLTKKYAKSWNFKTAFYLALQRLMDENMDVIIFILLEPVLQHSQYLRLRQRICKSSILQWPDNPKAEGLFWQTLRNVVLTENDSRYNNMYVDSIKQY
Method for human TLR8: TLR7/8/9 Inhibition Reporter Assays
Briefly, cells are seeded into Greiner 384 well plates (15000 cells per well for TLR7, 20,000 for TLR8 and 25,000 for TLR9) and then treated with test compounds in DMSO to yield a final dose response concentration range of 0.05 nM-50 μM. […] After a 22 hour incubation at 37° C., 5% CO2, SEAP levels are determined with the addition of HEK-Blue™ Detection reagent (Invivogen), a cell culture medium that allows for detection of SEAP, according to manufacturer's specifications. The percent inhibition is determined as the % reduction in the HEK-Blue signal present in wells treated with agonist plus DMSO alone compared to wells treated with a known inhibitor.

The term IC50 denotes the concentration needed to halve the response being measured. For `Cc1cc(-c2[nH]c3ccc(C4CCN(CC(=O)N(C)C(C)C)CC4)cc3c2C(C)C)cc(C)n1` [Example 244, 2-(4-(2-(2,6-dimethylpyridin-4-yl)-3-isopropyl-1H-indol-5-yl)piperidin-1-yl)-N-isopropyl-N-methylacetamide], the 50% inhibitory concentration (IC50) was found to be 990 nM against human TLR9 (TLR9 IC50, HEK-Blue cells overexpressing human TLR9, ODN2006 5 nM); 20.3 nM on human TLR8 (TLR8 IC50, HEK-Blue cells overexpressing human TLR8, R848 15.9 μM); 8.2 nM against human TLR7 (setting [1]).
With `Cc1c(-c2ccncc2)[nH]c2ccc(C3CCN(C4CCN(CC(C)C)CC4)CC3)cc12` [Example 782, 5-(1′-isobutyl-[1,4′-bipiperidin]-4-yl)-3-methyl-2-(pyridin-4-yl)-1H-indole], the IC50 on human TLR9 (setting [2]) came out at 124 nM; on human TLR8 (setting [3]), 383 nM; on human TLR7 (setting [1]), 1310 nM.
As to `Cc1cc(-c2[nH]c3ccc(C4CCN(Cc5cnn(C)c5)CC4)cc3c2C(C)C)cc(C)n1` [Example 440, 2-(2,6-dimethylpyridin-4-yl)-3-isopropyl-5-(1-((1-methyl-1H-pyrazol-4-yl)methyl)piperidin-4-yl)-1H-indole], the figures for the IC50 at human TLR9 (setting [2]), on human TLR8 (setting [3]) and at human TLR7 (setting [1]) were 210 nM, 2.3 nM and 5.3 nM, respectively.
With `CCC(=O)N1CCC(c2ccc3[nH]c(-c4cc(C)nc(C)c4)c(C(C)C)c3c2)CC1` [Example 206, 1-(4-(2-(2,6-dimethylpyridin-4-yl)-3-isopropyl-1H-indol-5-yl)piperidin-1-yl)propan-1-one], the half-maximal inhibitory concentration (IC50) on human TLR9 (setting [2]) was 41900 nM; on human TLR8 (setting [3]) it was 100 nM; against human TLR7 (setting [1]), 5.4 nM.
The like results for `Cc1cc(-c2[nH]c3ccc(C4CCN(C(=O)C5CCNC5)CC4)cc3c2C(C)C)ccn1` (stereo not drawn) [Example 572, (4-(3-isopropyl-2-(2-methylpyridin-4-yl)-1H-indol-5-yl)piperidin-1-yl)(pyrrolidin-3-yl)methanone] were, in that order, 692 nM, 18.6 nM and 5.1 nM.
Consider `CNCC(=O)N1CCC(c2ccc3[nH]c(-c4cc(C)nc(C)c4F)c(C(C)C)c3c2)CC1` [Example 622, 1-(4-(2-(3-fluoro-2,6-dimethylpyridin-4-yl)-3-isopropyl-1H-indol-5-yl)piperidin-1-yl)-2-(methylamino)ethan-1-one], for which the values for the IC50 on human TLR9 (setting [2]), on human TLR8 (setting [3]) and against human TLR7 (setting [1]) were 4010 nM, 6.1 nM and 1.2 nM, respectively.
For `COCCN1CCC(c2ccc3[nH]c(-c4cc(C)nc(C)c4)c(C(C)C)c3c2)CC1` [Example 325, 2-(2,6-dimethylpyridin-4-yl)-3-isopropyl-5-(1-(2-methoxyethyl)piperidin-4-yl)-1H-indole], the IC50 on human TLR9 (setting [2]) turned out to be 343 nM; on human TLR8 (setting [3]), 3.8 nM; against human TLR7 (setting [1]), 3.1 nM.
`Cc1cc(-c2[nH]c3ccc(C4CCN(C(CF)CF)CC4)cc3c2C(C)C)ccn1` [Example 865, 5-(1-(1,3-difluoropropan-2-yl)piperidin-4-yl)-3-isopropyl-2-(2-methylpyridin-4-yl)-1H-indole]: the IC50 on human TLR9 (setting [4]) turned out to be 1030 nM; on human TLR8 (setting [5]) it was 28.3 nM; at human TLR7 (setting [6]), 36.7 nM.
Turning to `COc1cc(-c2[nH]c3ccc(C4CCN(C5CCN(CC6CC6)CC5)CC4)cc3c2C(C)C)ccn1` [Example 796, 5-(1′-(cyclopropylmethyl)-[1,4′-bipiperidin]-4-yl)-3-isopropyl-2-(2-methoxypyridin-4-yl)-1H-indole], the half-maximal inhibitory concentration (IC50) amounted to 563 nM on human TLR9 (setting [2]), 13.9 nM on human TLR8 (setting [3]) and 154 nM against human TLR7 (setting [1]).
Regarding `Cc1cc(-c2[nH]c3ccc(C4CCN(C(=O)CCN5CCOCC5)CC4)cc3c2C(C)C)cc(C)n1` [Example 128, 1-(4-(2-(2,6-dimethylpyridin-4-yl)-3-isopropyl-1H-indol-5-yl)piperidin-1-yl)-3-morpholinopropan-1-one], the IC50 on human TLR9 (setting [2]) was found to be 730 nM; on human TLR8 (setting [3]) it was 15.5 nM; against human TLR7 (setting [1]), 3.9 nM.
Take `CCc1c(-c2ccncc2)[nH]c2ccc(C3CCNCC3)cc12` [Example 60, 3-ethyl-5-(piperidin-4-yl)-2-(pyridin-4-yl)-1H-indole]: the IC50 came out at 671 nM on human TLR9 (setting [2]), 36.8 nM on human TLR8 (setting [3]) and 96.3 nM at human TLR7 (setting [1]).
With `Cc1cc(-c2[nH]c3ccc(C4CCN(C(=O)CN5CC(F)(F)C[C@H]5CO)CC4)cc3c2C(C)C)cc(C)n1` [Example 403, (S)-2-(4,4-difluoro-2-(hydroxymethyl)pyrrolidin-1-yl)-1-(4-(2-(2,6-dimethylpyridin-4-yl)-3-isopropyl-1H-indol-5-yl)piperidin-1-yl)ethan-1-one], the half-maximal inhibitory concentration (IC50) at human TLR9 (setting [2]) was 17600 nM; at human TLR8 (setting [3]), 209 nM; at human TLR7 (setting [1]), 14.6 nM.
The like results for `Cc1cc(-c2[nH]c3ccc(C4CCN(C5CCNC(C)C5)CC4)cc3c2C(C)C)ccn1` (stereo not drawn) [Example 708, 3-isopropyl-5-(2′-methyl-[1,4′-bipiperidin]-4-yl)-2-(2-methylpyridin-4-yl)-1H-indole] were, in that order, 492 nM, 6.3 nM and 8.1 nM.
`Cc1cc(-c2[nH]c3ccc(C4CCN(CC(=O)NCC5CC5)CC4)cc3c2C(C)C)cc(C)n1` [Example 223, N-(cyclopropylmethyl)-2-(4-(2-(2,6-dimethylpyridin-4-yl)-3-isopropyl-1H-indol-5-yl)piperidin-1-yl)acetamide]: the IC50 at human TLR9 (setting [2]) was determined as 1160 nM; at human TLR8 (setting [3]), 10.7 nM; on human TLR7 (setting [1]), 3.7 nM.
In the case of `CC(C)c1c(-c2cc(C3CC3)ncc2F)[nH]c2ccc(C3CCNCC3)cc12` [Example 481, 2-(2-cyclopropyl-5-fluoropyridin-4-yl)-3-isopropyl-5-(piperidin-4-yl)-1H-indole], the results for the IC50 at human TLR9 (setting [2]), at human TLR8 (setting [3]) and against human TLR7 (setting [1]) were 677 nM, 95.4 nM and 16 nM, respectively.
As for `Cc1cc(-c2[nH]c3ccc(C4CCN(CC(O)CO)CC4)cc3c2C(C)C)cc(C)n1` (stereo not drawn) [Example 854, 3-(4-(2-(2,6-dimethylpyridin-4-yl)-3-isopropyl-1H-indol-5-yl)piperidin-1-yl) propane-1,2-diol], the IC50 at human TLR9 (setting [4]) worked out at 159 nM; on human TLR8 (setting [5]), 1.8 nM; against human TLR7 (setting [6]), 1 nM.
With `Cc1cc(-c2cc3cc(C4CCNCC4)ccc3[nH]2)cc(C)n1` [Example 94, 2-(2,6-dimethylpyridin-4-yl)-5-(piperidin-4-yl)-1H-indole], the 50% inhibitory concentration (IC50) was found to be 122 nM on human TLR9 (setting [2]), 3140 nM at human TLR8 (setting [3]) and 536 nM at human TLR7 (setting [1]).
On to `Cc1cc(-c2[nH]c3ccc(C4CCN(C(=O)C(=O)NCC5CCNCC5)CC4)cc3c2C(C)C)cc(C)n1` [Example 861, 2-(4-(2-(2,6-dimethylpyridin-4-yl)-3-isopropyl-1H-indol-5-yl)piperidin-1-yl)-2-oxo-N-(piperidin-4-ylmethyl)acetamide], for which the half-inhibitory concentration (IC50) was found to be 3420 nM at human TLR9 (setting [4]), 59 nM on human TLR8 (setting [5]) and 13.5 nM against human TLR7 (setting [6]).
Take `Cc1cc(-c2[nH]c3ccc(C4CCNCC4)cc3c2CC(F)F)ccn1` [Example 84, 3-(2,2-difluoroethyl)-2-(2-methylpyridin-4-yl)-5-(piperidin-4-yl)-1H-indole]: the IC50 on human TLR9 (setting [2]) stood at 464 nM; at human TLR8 (setting [3]), 39.4 nM; against human TLR7 (setting [1]), 75.9 nM.
Taken in the same sequence, the figures for `Cc1cc(-c2[nH]c3ccc(C4CCNCC4)cc3c2C(C)(C)C)cc(C)n1` [Example 96, 3-(tert-butyl)-2-(2,6-dimethylpyridin-4-yl)-5-(piperidin-4-yl)-1H-indole] were 1320 nM, 23.3 nM and 9.1 nM.
As to `Cc1cc(-c2[nH]c3ccc(C4CCN(CC(=O)NC5(C)CCC5)CC4)cc3c2C(C)C)cc(C)n1` [Example 243, 2-(4-(2-(2,6-dimethylpyridin-4-yl)-3-isopropyl-1H-indol-5-yl)piperidin-1-yl)-N-(1-methylcyclobutyl)acetamide], the IC50 on human TLR9 (setting [2]) came out at 817 nM; on human TLR8 (setting [3]) it was 20 nM; against human TLR7 (setting [1]), 10 nM.
Turning to `Cc1cc(-c2[nH]c3ccc(C4CCN(CC(=O)N5CC(F)(F)C5)CC4)cc3c2C(C)C)cc(C)n1` [Example 215, 1-(3,3-difluoroazetidin-1-yl)-2-(4-(2-(2,6-dimethylpyridin-4-yl)-3-isopropyl-1H-indol-5-yl)piperidin-1-yl)ethan-1-one], the values for the half-maximal inhibitory concentration (IC50) on human TLR9 (setting [2]), on human TLR8 (setting [3]) and on human TLR7 (setting [1]) were 680 nM, 6 nM and 4.9 nM, respectively.
Regarding `Cc1cc(-c2[nH]c3ccc(C4CCN(CC(=O)N5CCS(=O)(=O)CC5)CC4)cc3c2C(C)C)cc(C)n1` [Example 281, 2-(4-(2-(2,6-dimethylpyridin-4-yl)-3-isopropyl-1H-indol-5-yl)piperidin-1-yl)-1-(1,1-dioxidothiomorpholino)ethan-1-one], the IC50 came out at 129 nM at human TLR9 (setting [2]), 2 nM at human TLR8 (setting [3]) and 1.2 nM against human TLR7 (setting [1]).
Regarding `CCC(C)NC(=O)CN1CCC(c2ccc3[nH]c(-c4cc(C)nc(C)c4)c(C(C)C)c3c2)CC1` (stereo not drawn) [Example 234, N-(sec-butyl)-2-(4-(2-(2,6-dimethylpyridin-4-yl)-3-isopropyl-1H-indol-5-yl)piperidin-1-yl)acetamide], the half-maximal inhibitory concentration (IC50) was determined as 1720 nM at human TLR9 (setting [2]), 24.9 nM at human TLR8 (setting [3]) and 11.4 nM on human TLR7 (setting [1]).
For the molecule `Cc1cc(-c2[nH]c3ccc(C4CCN(C5CCS(=O)(=O)CC5)CC4)cc3c2C(C)C)cc(C)n1` [Example 459, 4-(4-(2-(2,6-dimethylpyridin-4-yl)-3-isopropyl-1H-indol-5-yl)piperidin-1-yl)tetrahydro-2H-thiopyran 1,1-dioxide], the half-maximal inhibitory concentration (IC50) at human TLR9 (setting [2]) is 1220 nM; on human TLR8 (setting [3]), 3.6 nM; against human TLR7 (setting [1]), 3.7 nM.
On to `Cc1cc(-c2[nH]c3cc(F)c(C4CCNCC4)cc3c2C(C)C)c(C)cn1` [Example 80, 2-(2,5-dimethylpyridin-4-yl)-6-fluoro-3-isopropyl-5-(piperidin-4-yl)-1H-indole], for which the figures for the IC50 on human TLR9 (setting [2]), on human TLR8 (setting [3]) and against human TLR7 (setting [1]) were 583 nM, 1.3 nM and 2.7 nM, respectively.
